Assay results as given in US12421208B2, “Chemical compounds” (ASTRAZENECA AB, priority 2020, dated 2025).

What was measured:
[1] = test system: MDCKII cells expressing MDR1 and BCRP; test: In vitro human transporter efflux (MDCK-MDR1-BCRP); type: in vitro ADME; details: Papp(B to A)/Papp(A to B), 1 or 0.1 μM, 90-min incubation
Description: In Vitro Human Transporter Efflux
(§6) MDCKII cells expressing MDR1 and BCRP were seeded onto polyethylene membranes in 96-well Transwell insert systems at a density to form a confluent cell monolayer. […] The final percent volume of the organic solvent was less than 1%. Permeation of the test compounds from A to B direction and from B to A direction was determined over a 90-min incubation at 37° C. and 5% CO2 with a relative humidity of 95%. At the end of the incubation, samples from the apical and basolateral side were taken and then precipitated with cold acetonitrile containing internal standard. After centrifugation at 4000 rpm, the supernatant was diluted with 0.1% formic acid aqueous solution and quantified by LC-MS/MS. The integrity of the cell monolayers was confirmed by using the marker Lucifer yellow.
(§7) (1) The efflux ratio was calculated using the following equation Efflux ratio=Papp(B to A)/Papp(A to B)
(§8) (2) where dCr/dt is the cumulative concentration of the compound in the receiver chamber as a function of time (in μM/s); Vr is the solution volume in the receiver chamber (0.1 ml on the apical side and 0.3 ml on the basolateral side); A is the surface area for the transport, that is, 0.11 cm2 for the area of the monolayer; and CO is the initial concentration in the donor chamber (in μM).

[2] = test system: DLD1 cells; test: PARP proliferation assay (7 day compound dosing), WT DLD1; type: cell-based; details: Homo sapiens, 168 h; WT DLD-1 cells, 7 day dosing; read-out: WT DLD-1 prolif. 7 d IC50
Description: (§1) PARP Proliferation Assay (7 Day Compound Dosing)
(§2) DLD1 and BRCA2 (−/−) DLD1 cells were harvested to a density of 5000 cells/ml and 2.5E4 cells/ml respectively in complete media, 40 μL/well seeded into 384-well plates (Greiner, Kremsmunster, Austria; 781090) using a Multidrop Combi then incubated at 37° C., 5% CO2 overnight. Next day (Day 1) using a Multidrop Combi add sytoxgreen (5 ul, 2 uM) and saponin (10 ul, 0.25% stock) to a day 0 plate, seal the plate using a black adhesive lid and incubate for >3 h at rt. Cells were imaged using Cell Insight (Thermo Fisher) fitted with a 4× objective. Test compounds are added using an Echo 555 and placed in incubator maintained at 37° C., 5% CO2 and incubated for 7 days. On Day 8 add sytox green (5 ul, 2 uM) and then saponin (10 ul, 0.25% stock) to plates, seal the plate using a black adhesive lid and incubate for >3 h at rt. Read all cells on the Cell Insight with 4× Objective. The rate of proliferation is determined in Genedata by assessing the total cell number output from the Cell Insight for Day 0 and Day 8 plates.

[3] = biological target: T1, PARP1 (Homo sapiens, UniProt P09874); test: PARP fluorescence anisotropy binding assay, PARP1; details: recombinant full length 6HIS tagged PARP1
T1 construct: Recombinant full length 6HIS tagged PARP1 protein; 6HIS
T1 sequence (P09874 whole entry): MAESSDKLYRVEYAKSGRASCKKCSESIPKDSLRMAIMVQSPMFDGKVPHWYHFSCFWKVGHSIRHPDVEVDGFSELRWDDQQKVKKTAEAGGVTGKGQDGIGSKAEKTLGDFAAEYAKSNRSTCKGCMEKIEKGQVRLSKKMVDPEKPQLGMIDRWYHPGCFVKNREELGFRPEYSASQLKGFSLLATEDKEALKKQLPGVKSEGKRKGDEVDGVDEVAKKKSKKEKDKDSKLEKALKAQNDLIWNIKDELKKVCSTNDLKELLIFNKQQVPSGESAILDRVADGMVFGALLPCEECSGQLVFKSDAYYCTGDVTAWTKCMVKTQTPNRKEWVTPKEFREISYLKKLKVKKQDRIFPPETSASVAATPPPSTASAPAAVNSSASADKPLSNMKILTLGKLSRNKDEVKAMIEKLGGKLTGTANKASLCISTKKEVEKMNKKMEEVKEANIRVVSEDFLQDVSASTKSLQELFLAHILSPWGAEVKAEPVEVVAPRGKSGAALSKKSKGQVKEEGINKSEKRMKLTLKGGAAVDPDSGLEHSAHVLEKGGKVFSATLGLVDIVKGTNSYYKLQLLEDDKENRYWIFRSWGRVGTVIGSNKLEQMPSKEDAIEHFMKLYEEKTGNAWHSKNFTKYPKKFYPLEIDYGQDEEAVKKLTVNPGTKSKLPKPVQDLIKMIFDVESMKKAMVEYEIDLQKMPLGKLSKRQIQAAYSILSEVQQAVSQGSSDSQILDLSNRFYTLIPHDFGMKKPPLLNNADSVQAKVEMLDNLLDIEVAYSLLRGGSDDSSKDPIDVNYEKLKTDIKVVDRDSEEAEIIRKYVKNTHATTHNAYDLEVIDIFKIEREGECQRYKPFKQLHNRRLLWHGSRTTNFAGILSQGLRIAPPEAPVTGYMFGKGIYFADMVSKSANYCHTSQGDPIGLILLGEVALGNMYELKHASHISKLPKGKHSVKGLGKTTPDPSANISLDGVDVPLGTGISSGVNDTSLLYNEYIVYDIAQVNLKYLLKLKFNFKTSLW
Description: Recombinant full length 6HIS tagged PARP1 protein was diluted to 6 nM with 50 mM Tris pH 8, 0.001% Triton X100, 10 mM MgCl2, 150 mM NaCl and incubated for four hours with an equivalent volume of 2 nM fluorescent probe diluted with 50 mM Tris pH 8, 0.001% Triton X100, 10 mM MgCl2, 150 mM NaCl. The final DMSO concentration of the probe was kept below 1% (v/v).

[4] = biological target: hERG (Homo sapiens, UniProt Q12809); test: hERG inhibition
Sequence of hERG (Q12809 whole entry): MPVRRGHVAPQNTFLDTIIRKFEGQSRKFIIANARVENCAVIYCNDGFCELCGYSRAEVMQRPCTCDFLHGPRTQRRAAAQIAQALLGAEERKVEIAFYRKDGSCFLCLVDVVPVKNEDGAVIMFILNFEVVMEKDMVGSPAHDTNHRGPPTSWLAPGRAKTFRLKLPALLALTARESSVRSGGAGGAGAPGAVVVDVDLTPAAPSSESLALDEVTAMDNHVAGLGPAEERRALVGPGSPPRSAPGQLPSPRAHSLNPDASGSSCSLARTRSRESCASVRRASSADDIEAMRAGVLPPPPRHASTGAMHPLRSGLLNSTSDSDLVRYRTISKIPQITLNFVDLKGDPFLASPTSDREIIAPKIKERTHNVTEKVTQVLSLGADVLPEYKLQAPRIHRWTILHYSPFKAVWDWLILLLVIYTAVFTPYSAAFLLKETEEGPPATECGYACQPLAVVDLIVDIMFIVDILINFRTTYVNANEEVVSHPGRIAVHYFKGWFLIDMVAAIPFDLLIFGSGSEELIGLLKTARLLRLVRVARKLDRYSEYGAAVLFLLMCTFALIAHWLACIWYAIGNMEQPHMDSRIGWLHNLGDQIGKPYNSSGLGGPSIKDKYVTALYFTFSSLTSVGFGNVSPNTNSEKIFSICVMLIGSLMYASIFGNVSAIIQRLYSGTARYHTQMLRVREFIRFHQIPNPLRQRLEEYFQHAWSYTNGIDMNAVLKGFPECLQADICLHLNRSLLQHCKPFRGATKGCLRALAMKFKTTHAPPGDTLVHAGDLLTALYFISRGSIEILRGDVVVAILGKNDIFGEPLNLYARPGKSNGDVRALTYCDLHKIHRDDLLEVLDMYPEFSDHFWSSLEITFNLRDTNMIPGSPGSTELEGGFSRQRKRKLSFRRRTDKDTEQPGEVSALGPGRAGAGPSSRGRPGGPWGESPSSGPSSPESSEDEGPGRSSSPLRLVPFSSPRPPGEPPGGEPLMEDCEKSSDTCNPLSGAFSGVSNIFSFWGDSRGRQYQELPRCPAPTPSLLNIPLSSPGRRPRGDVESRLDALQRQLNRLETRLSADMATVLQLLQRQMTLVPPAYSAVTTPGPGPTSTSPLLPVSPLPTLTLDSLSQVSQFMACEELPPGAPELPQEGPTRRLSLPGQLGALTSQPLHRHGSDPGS
Source text: It is well known that blockade of the cardiac ion channel coded by human ether-n-gogo-related gene (hERG) is a risk factor in drug discovery and development. Blockage of hERG can cause safety problems such as cardiac arrhythmia. Advantageously, the compounds of Formula I have low hERG activity.

[5] = biological target: T2, PARP2 (Homo sapiens, UniProt Q9UGN5); test: PARP fluorescence anisotropy binding assay, PARP2; details: recombinant full length PARP2
T2 construct: Recombinant full length PARP2 protein
T2 sequence (Q9UGN5 whole entry): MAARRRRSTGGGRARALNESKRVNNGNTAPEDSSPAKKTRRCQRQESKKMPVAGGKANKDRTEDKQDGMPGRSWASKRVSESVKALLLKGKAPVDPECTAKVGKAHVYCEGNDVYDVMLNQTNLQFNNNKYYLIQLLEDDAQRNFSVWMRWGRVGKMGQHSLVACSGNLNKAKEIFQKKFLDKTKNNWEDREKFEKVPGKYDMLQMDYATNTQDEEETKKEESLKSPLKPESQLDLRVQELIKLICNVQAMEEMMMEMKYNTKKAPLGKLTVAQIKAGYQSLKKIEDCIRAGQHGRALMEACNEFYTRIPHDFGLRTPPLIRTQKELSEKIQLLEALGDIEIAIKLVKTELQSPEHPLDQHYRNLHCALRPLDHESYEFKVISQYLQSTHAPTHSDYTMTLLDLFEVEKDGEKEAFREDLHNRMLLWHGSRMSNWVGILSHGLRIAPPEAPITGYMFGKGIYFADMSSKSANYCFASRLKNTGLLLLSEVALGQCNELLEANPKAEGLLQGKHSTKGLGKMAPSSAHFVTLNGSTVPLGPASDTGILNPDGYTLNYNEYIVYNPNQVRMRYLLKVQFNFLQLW
Description: (§3) PARP Fluorescence Anisotropy Binding Assays
(§4) Recombinant full length PARP2 protein was diluted to 6 nM with 50 mM Tris pH 8, 0.001% Triton X100, 10 mM MgCl2, 150 mM NaCl and incubated for four hours with an equivalent volume of 2 nM fluorescent probe diluted with 50 mM Tris pH 8, 0.001% Triton X100, 10 mM MgCl2, 150 mM NaCl. The final DMSO concentration of the probe was kept below 1% (v/v).
(§5) Fluorescence anisotropy of the probe when bound to the proteins was measured using a BMG Pherastar FSX© in the presence of test compounds or solvent control and the effect on anisotropy determined. % inhibition values for different test compound concentrations were calculated and fitted to a four parameter logistic plot in order to determine the IC50 value.

[6] = biological target: PARP5a (Homo sapiens, UniProt O95271); test: PARP fluorescence anisotropy binding assay, PARP5a binding domain; details: recombinant PARP5a binding domain
Sequence of PARP5a (O95271 1112-1317): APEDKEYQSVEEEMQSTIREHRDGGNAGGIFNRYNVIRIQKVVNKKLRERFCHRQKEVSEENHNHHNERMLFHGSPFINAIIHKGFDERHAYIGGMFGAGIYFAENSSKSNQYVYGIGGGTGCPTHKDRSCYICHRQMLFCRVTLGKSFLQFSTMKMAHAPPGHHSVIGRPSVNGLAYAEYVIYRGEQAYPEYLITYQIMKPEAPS
Source text: as §3

[7] = test system: BRCA2 (−/−) DLD1 cells; test: PARP proliferation assay (7 day compound dosing), BRCA2 (−/−) DLD1; type: cell-based; details: BRCA2 −/− DLD-1 cells, 7 day dosing; read-out: BRCA2 −/− DLD-1 prolif. 7 d IC50
Description: as §1, §2

[8] = biological target: T3, PARP3 (Homo sapiens, UniProt Q9Y6F1); test: PARP fluorescence anisotropy binding assay, PARP3; details: recombinant full length PARP3
T3 construct: Recombinant full length PARP3 protein
T3 sequence (Q9Y6F1 1-533): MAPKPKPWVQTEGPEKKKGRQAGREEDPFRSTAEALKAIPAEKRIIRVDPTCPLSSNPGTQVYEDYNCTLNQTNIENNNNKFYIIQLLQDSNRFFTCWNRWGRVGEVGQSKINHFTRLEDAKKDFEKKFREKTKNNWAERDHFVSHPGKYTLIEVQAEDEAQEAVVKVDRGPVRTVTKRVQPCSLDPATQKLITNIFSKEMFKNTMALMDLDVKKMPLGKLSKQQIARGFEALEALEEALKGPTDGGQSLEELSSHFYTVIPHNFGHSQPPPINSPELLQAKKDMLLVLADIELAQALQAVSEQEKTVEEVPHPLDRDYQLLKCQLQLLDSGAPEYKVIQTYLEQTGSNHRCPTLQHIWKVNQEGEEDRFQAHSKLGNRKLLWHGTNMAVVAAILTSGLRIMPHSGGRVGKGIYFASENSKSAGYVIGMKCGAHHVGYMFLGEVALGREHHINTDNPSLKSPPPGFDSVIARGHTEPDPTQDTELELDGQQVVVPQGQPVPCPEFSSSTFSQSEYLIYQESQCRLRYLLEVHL
Source text: as §3

[9] = biological target: T4, PARP6 (Homo sapiens, UniProt Q2NL67); test: PARP fluorescence anisotropy binding assay, PARP6; details: recombinant full length GST tagged PARP6
T4 construct: Recombinant full length GST tagged PARP6 protein; GST
T4 sequence (Q2NL67 whole entry): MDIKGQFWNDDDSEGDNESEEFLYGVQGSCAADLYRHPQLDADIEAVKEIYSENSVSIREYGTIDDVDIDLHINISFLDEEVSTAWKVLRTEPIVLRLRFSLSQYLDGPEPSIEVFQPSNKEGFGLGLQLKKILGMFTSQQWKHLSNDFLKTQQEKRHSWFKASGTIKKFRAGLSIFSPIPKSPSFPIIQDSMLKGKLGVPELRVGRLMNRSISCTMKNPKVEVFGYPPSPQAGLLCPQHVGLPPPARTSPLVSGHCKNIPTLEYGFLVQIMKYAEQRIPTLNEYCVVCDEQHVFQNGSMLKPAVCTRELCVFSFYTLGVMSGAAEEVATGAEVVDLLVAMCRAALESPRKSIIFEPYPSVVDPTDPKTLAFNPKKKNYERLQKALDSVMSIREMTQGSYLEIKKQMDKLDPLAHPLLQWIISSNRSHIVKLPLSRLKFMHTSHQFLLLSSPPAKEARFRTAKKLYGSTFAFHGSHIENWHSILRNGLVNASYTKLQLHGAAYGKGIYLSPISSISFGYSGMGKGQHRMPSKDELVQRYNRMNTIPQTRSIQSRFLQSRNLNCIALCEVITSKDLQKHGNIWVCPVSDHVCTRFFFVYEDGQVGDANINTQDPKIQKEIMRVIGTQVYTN
Description: as §3
as §4, with “length GST tagged PARP6” for “length PARP2”, “to 160” for “to 6”, “of 6” for “of 2”
as §5, with “value. Where necessary, the compound Ki can be determined from the IC50 value using a Munson Rodbard equation defined in Anal Biochem. 1980 Sep. 1; 107(1):220-39 and is based on the known KD of the probe binding to the relevant PARP protein” for “value.”

[10] = test system: MDR1 and BCRP; test: In vitro human transporter efflux (MDCK-MDR1-BCRP); type: in vitro ADME; details: human, pH 7.4, Papp(B to A)/Papp(A to B), 1 or 0.1 μM, 90-min incubation
Description: In Vitro Human Transporter Efflux
as §6, §7, §8

CNC(=O)c1ccc(N2CCN(Cc3ccc4nc(C(C)F)c(=O)[nH]c4c3F)CC2)c(F)n1 (single isomer, unassigned) [Example 13, 6-fluoro-5-[4-[[5-fluoro-2-[(1S OR 1R)-1-fluoroethyl]-3-oxo-4H-quinoxalin-6-yl]methyl]piperazin-1-yl]-N-methyl-pyridine-2-carboxamide]
MDCK-MDR1-BCRP Efflux Ratio [1]: 3.0
IC50 [2]: 22 µM
IC50 [3]: 0.009 µM
IC50 [4]: > 40 µM
IC50 [5]: > 100 µM
IC50 [6]: > 100 µM
IC50 [7]: 0.019 µM
IC50 [8]: 62 µM
IC50 [9]: > 100 µM

CNC(=O)c1ccc(N2CCN(Cc3ccc4nc(C(C)F)c(=O)[nH]c4c3F)CC2)c(F)n1 (single isomer, unassigned) [Example 12, 6-fluoro-5-[4-[[5-fluoro-2-[(1S OR 1R)-1-fluoroethyl]-3-oxo-4H-quinoxalin-6-yl]methyl]piperazin-1-yl]-N-methyl-pyridine-2-carboxamide]
efflux ratio at 90 min [10]: 4.2
IC50 [3]: 0.015 µM
IC50 [4]: > 40 µM
IC50 [6]: > 100 µM
IC50 [7]: 0.008 µM
IC50 [8]: 85 µM
IC50 [9]: > 100 µM
